In ChEMBL document CHEMBL1201862, “PubChem BioAssay data set” (2004):
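Compound exposure: 48 hours, 5 concentrations, 96-well plates. GI50 is the concentration that inhibits growth by half.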 Calls of active or inactive are those of the source. Rule as the data show it: active = GI50 up to about 1.1 µM and inactive = higher.

What was measured:
Experiment in all cases: growth of human tumour cells (NCI), 48 h
HCT-15 = tested on: HCT-15
PC-3 = tested on: PC-3
SK-OV-3 = tested on: SK-OV-3
OVCAR-8 = tested on: OVCAR-8
NCI-H460 = tested on: NCI-H460
NCI/ADR-RES = tested on: NCI/ADR-RES
SF-295 = tested on: SF-295
SK-MEL-2 = tested on: SK-MEL-2
SNB-19 = tested on: SNB-19
COLO 205 = tested on: COLO 205
SK-MEL-5 = tested on: SK-MEL-5
TK-10 = tested on: TK-10
M14 = tested on: M14
Hs-578T = tested on: Hs-578T
786-0 = tested on: 786-0
KM12 = tested on: KM12
NCI-H226 = tested on: NCI-H226
DU-145 = tested on: DU-145
SR = tested on: SR
BT-549 = tested on: BT-549

Row | SMILES | GI50 (HCT-15) [µM] | GI50 (PC-3) | GI50 (SK-OV-3) | GI50 (OVCAR-8) | GI50 (NCI-H460) | GI50 (NCI/ADR-RES) | GI50 (SF-295) | GI50 (SK-MEL-2) | GI50 (SNB-19) | GI50 (COLO 205) | GI50 (SK-MEL-5) | GI50 (TK-10) | GI50 (M14) | GI50 (Hs-578T) | GI50 (786-0) | GI50 (KM12) | GI50 (NCI-H226) | GI50 (DU-145) | GI50 (SR) | GI50 (BT-549)
1 | C[C@@H](c1ccccc1)N1CO[C@@]2(C#Cc3ccc4c(c3)OCO4)CCC[C@@H]12 | 12.6 | 12.4 µM (inactive) | 17.4 µM (inactive) | 14 µM (inactive) | 13.3 µM (inactive) | 14.7 µM (inactive) | 14.9 µM (inactive) | 18.3 µM (inactive) | 16.1 µM (inactive) | 15.8 µM (inactive) | 13.1 µM (inactive) | 15.5 µM (inactive) | 14.8 µM (inactive) | 15.9 µM (inactive) | 17.8 µM (inactive) | 15.7 µM (inactive) | 20.6 µM (inactive) | 16.1 µM (inactive) | 8.67 µM (inactive) | 
2 | O=S(=O)(NC1CCCCC1)c1ccc2c(c1)OCCOCCOCCOCCO2 | > 100 | > 100 µM (inactive) | > 100 µM (inactive) | > 100 µM (inactive) | > 100 µM (inactive) |  | > 100 µM (inactive) |  | > 100 µM (inactive) | > 100 µM (inactive) | > 100 µM (inactive) | > 100 µM (inactive) | > 100 µM (inactive) | > 100 µM (inactive) | > 100 µM (inactive) | > 100 µM (inactive) | > 100 µM (inactive) | > 100 µM (inactive) | > 100 µM (inactive) | > 100 µM (inactive)
3 | COc1ccc(N2C(=O)/C(=C/c3ccc(N(CCC#N)CCC#N)cc3)N=C2c2ccccc2)c(OC)c1 | 40.2 |  | > 100 µM (inactive) | 28.5 µM (inactive) | > 100 µM (inactive) | 52.8 µM (inactive) | > 100 µM (inactive) |  | > 100 µM (inactive) | > 100 µM (inactive) | > 100 µM (inactive) | > 100 µM (inactive) | > 100 µM (inactive) | 50.6 µM (inactive) | > 100 µM (inactive) | 35.5 µM (inactive) | 27.4 µM (inactive) | > 100 µM (inactive) | 22.4 µM (inactive) | > 100 µM (inactive)
4 | CCP(=O)(OC)C1=CCN(C(=O)OCC[Si](C)(C)C)CC1 (configuration not stated) | > 100 | > 100 µM (inactive) | > 100 µM (inactive) | > 100 µM (inactive) | > 100 µM (inactive) | > 100 µM (inactive) | > 100 µM (inactive) | > 100 µM (inactive) | > 100 µM (inactive) | > 100 µM (inactive) | > 100 µM (inactive) | > 100 µM (inactive) | > 100 µM (inactive) | > 100 µM (inactive) | > 100 µM (inactive) | > 100 µM (inactive) | > 100 µM (inactive) | > 100 µM (inactive) |  | 
5 | O=C(O)CCc1nc2cc3ccccc3cc2[nH]c1=O | > 100 | > 100 µM (inactive) | > 100 µM (inactive) | > 100 µM (inactive) | > 100 µM (inactive) | > 100 µM (inactive) | > 100 µM (inactive) | > 100 µM (inactive) | > 100 µM (inactive) | > 100 µM (inactive) | > 100 µM (inactive) | > 100 µM (inactive) | > 100 µM (inactive) |  | > 100 µM (inactive) | > 100 µM (inactive) | > 100 µM (inactive) | > 100 µM (inactive) | > 100 µM (inactive) | > 100 µM (inactive)
6 | CN(C)c1ccc(/C=C2\N=C(c3ccccc3)N(c3nc4ccc(Sc5ccccc5)cc4[nH]3)C2=O)cc1 | 36.5 | 39.1 µM (inactive) | 13.7 µM (inactive) | 43 µM (inactive) | 30 µM (inactive) | 25.9 µM (inactive) | 23.6 µM (inactive) | 20.8 µM (inactive) | 49.1 µM (inactive) | 21.6 µM (inactive) | 32.4 µM (inactive) | 23.5 µM (inactive) | 43.6 µM (inactive) | 35.2 µM (inactive) | 42.2 µM (inactive) | 27.8 µM (inactive) |  | 77.4 µM (inactive) |  | 34.9 µM (inactive)
7 | CC(=O)OCC(C)(COC(C)=O)N1C(=O)C2C3c4ccccc4C(c4ccccc43)C2C1=O (configuration not stated) | > 100 | > 100 µM (inactive) | > 100 µM (inactive) | > 100 µM (inactive) | > 100 µM (inactive) |  | > 100 µM (inactive) |  | > 100 µM (inactive) | > 100 µM (inactive) | > 100 µM (inactive) | > 100 µM (inactive) | > 100 µM (inactive) | > 100 µM (inactive) | > 100 µM (inactive) | > 100 µM (inactive) | > 100 µM (inactive) | > 100 µM (inactive) | > 100 µM (inactive) | > 100 µM (inactive)
8 | O=C(/C=C/c1ccc(Cl)cc1)c1cccs1 | 17.5 | 18.2 µM (inactive) | 26.4 µM (inactive) | 21.7 µM (inactive) | 18.4 µM (inactive) | 24.3 µM (inactive) | 20 µM (inactive) | 24.5 µM (inactive) | 18.2 µM (inactive) | 19.3 µM (inactive) | 18.2 µM (inactive) | 20.8 µM (inactive) | 20.9 µM (inactive) | 36 µM (inactive) | 15 µM (inactive) | 13.9 µM (inactive) | 22.4 µM (inactive) | 40.6 µM (inactive) | 6.24 µM (inactive) | 
9 | C=C(C)C1CC=C(C)C(=O)C1 (configuration not stated) [CARVONE] | > 100 | > 100 µM (inactive) |  | > 100 µM (inactive) | > 100 µM (inactive) | > 100 µM (inactive) | > 100 µM (inactive) | > 100 µM (inactive) | > 100 µM (inactive) | > 100 µM (inactive) | > 100 µM (inactive) | > 100 µM (inactive) | > 100 µM (inactive) | > 100 µM (inactive) | > 100 µM (inactive) | > 100 µM (inactive) | > 100 µM (inactive) | > 100 µM (inactive) | > 100 µM (inactive) | 
10 | CC#CCC1CCC(OCC)=CC1=O (configuration not stated) | > 100 |  | > 100 µM (inactive) | > 100 µM (inactive) | > 100 µM (inactive) |  | > 100 µM (inactive) | > 100 µM (inactive) | > 100 µM (inactive) | > 100 µM (inactive) | > 100 µM (inactive) | > 100 µM (inactive) | > 100 µM (inactive) |  | > 100 µM (inactive) | > 100 µM (inactive) | 92.7 µM (inactive) |  | > 100 µM (inactive) | 
11 | N#CCCN(CCCN(C(=O)Nc1ccccc1)c1ccccc1)C(=O)Nc1ccccc1 | > 100 | 73.3 µM (inactive) | > 100 µM (inactive) | > 100 µM (inactive) | 77.4 µM (inactive) | > 100 µM (inactive) | > 100 µM (inactive) | > 100 µM (inactive) | 64.3 µM (inactive) | > 100 µM (inactive) | > 100 µM (inactive) | > 100 µM (inactive) | > 100 µM (inactive) |  | > 100 µM (inactive) | 87.9 µM (inactive) | > 100 µM (inactive) | > 100 µM (inactive) | > 100 µM (inactive) | > 100 µM (inactive)
12 | CCC1(O)CC(OC2CC(N(C)C)C(OC3CC(O)C(OC4OC(C)C(=O)C=C4N)C(C)O3)C(C)O2)c2c(cc3c(c2O)C(=O)c2c(O)cccc2C3=O)C1C(=O)OC (configuration not stated) | 0.241 | 0.00566 µM (active) | 0.0518 µM (active) | 0.00415 µM (active) | < 0.001 µM (active) | 1.25 µM (inactive) | 0.0016 µM (active) | 0.0221 µM (active) | 0.0282 µM (active) | 0.00429 µM (active) | 0.00469 µM (active) | 0.06 µM (active) | 0.0345 µM (active) | 0.12 µM (active) | 0.00254 µM (active) | 0.00525 µM (active) | 0.115 µM (active) | 0.00637 µM (active) | 0.00625 µM (active) | 
13 | CCOC(=O)c1nc2ccccc2nc1Nc1cc(OC)c(OC)c(OC)c1 | > 100 |  | > 100 µM (inactive) |  | > 100 µM (inactive) | > 100 µM (inactive) | > 100 µM (inactive) | > 100 µM (inactive) | > 100 µM (inactive) | > 100 µM (inactive) | > 100 µM (inactive) | > 10 µM (inactive) | > 100 µM (inactive) | 92.9 µM (inactive) | > 100 µM (inactive) | > 100 µM (inactive) |  | > 100 µM (inactive) | > 100 µM (inactive) | > 100 µM (inactive)
14 | CC(C)[Si](Oc1cc2c3c(ccc2c(O)c1[C@@H](C)CO[Si](C)(C)C(C)(C)C)C(C)(C)CCC3)(C(C)C)C(C)C | > 100 | 74.6 µM (inactive) | > 100 µM (inactive) | > 100 µM (inactive) | 78 µM (inactive) | > 100 µM (inactive) | 92.3 µM (inactive) | > 100 µM (inactive) | > 100 µM (inactive) | > 100 µM (inactive) | 23.8 µM (inactive) | > 100 µM (inactive) | > 100 µM (inactive) | > 100 µM (inactive) | > 100 µM (inactive) | > 100 µM (inactive) | > 100 µM (inactive) | > 100 µM (inactive) | 51.5 µM (inactive) | 
15 | COc1cc(C2SCC(=O)N2c2ccc(NC(=O)c3ccc(N4C(=O)CSC4c4cc(OC)c(OC)c(OC)c4)cc3)cc2)cc(OC)c1OC (configuration not stated) | 38.5 | 58.3 µM (inactive) | > 100 µM (inactive) | 40.3 µM (inactive) | > 100 µM (inactive) | 25.2 µM (inactive) | 29.3 µM (inactive) | 91.6 µM (inactive) | 84.1 µM (inactive) | > 100 µM (inactive) | 46.3 µM (inactive) | > 100 µM (inactive) | 73.1 µM (inactive) | 68.1 µM (inactive) | 70 µM (inactive) | 33 µM (inactive) |  | > 100 µM (inactive) |  | 56 µM (inactive)
